Measured values reported in PubChem BioAssay AID256 (DTP/NCI, 2004).
“And” between values parts separate entries of the source, which are not always exact repeats. Equal entries are not always repeated. Toxic doses and inconclusive results are not listed. The calls were made as follows: active = survival T/C of 150% or more; inactive = T/C below 125% in these data.

Test system: CD2F1 mice, L1210 leukemia ip, survival T/C
Assay: NCI In Vivo Anticancer Drug Screen. Data for tumor model L1210 Leukemia (intraperitoneal) in CD2F1 (CDF1) mice
Details: higher = longer survival
In short: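 Activity against a transplanted murine tumor was judged by comparing the compound group with a vehicle group. The outcome in the treated animals was divided by that in the controls.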

[1] = endpoint: mean survival time, dose: 100.0 mg/kg/injection, schedule: Q01DX001 (ip), vehicle: saline with Tween-80
[2] = endpoint: mean survival time, dose: 200.0 mg/kg/injection, schedule: Q01DX001 (ip), vehicle: saline with Tween-80
[3] = endpoint: mean survival time, dose: 25.0 mg/kg/injection, schedule: Q01DX009 (ip), vehicle: saline
[4] = endpoint: mean survival time, dose: 100.0 mg/kg/injection, schedule: Q01DX001 (ip), vehicle: saline
[5] = endpoint: mean survival time, dose: 200.0 mg/kg/injection, schedule: Q01DX001 (ip), vehicle: saline
[6] = endpoint: mean survival time, dose: 400.0 mg/kg/injection, schedule: Q01DX001 (ip), vehicle: saline
[7] = endpoint: mean survival time, dose: 100.0 mg/kg/injection, schedule: Q04DX003 (ip), vehicle: saline with Tween-80
[8] = endpoint: mean survival time, dose: 200.0 mg/kg/injection, schedule: Q04DX003 (ip), vehicle: saline with Tween-80
[9] = endpoint: mean survival time, dose: 400.0 mg/kg/injection, schedule: Q04DX003 (ip), vehicle: saline with Tween-80
[10] = endpoint: mean survival time, dose: 400.0 mg/kg/injection, schedule: Q01DX001 (ip), vehicle: saline with Tween-80
[11] = endpoint: mean survival time, dose: 50.0 mg/kg/injection, schedule: Q01DX009 (ip), vehicle: saline

Measured: T/C

CN(C)Cc1ccc(C(C)(C)C)cc1Br
inactive: endpoint: mean survival time, dose: 12.5 mg/kg/injection, schedule: Q01DX009 (ip), vehicle: water 98 % of control | endpoint: mean survival time, dose: 25.0 mg/kg/injection, schedule: Q01DX009 (ip), vehicle: water 95 % of control | endpoint: mean survival time, dose: 50.0 mg/kg/injection, schedule: Q01DX009 (ip), vehicle: water 98 % of control | endpoint: mean survival time, dose: 100.0 mg/kg/injection, schedule: Q01DX009 (ip), vehicle: water 98 % of control | endpoint: mean survival time, dose: 200.0 mg/kg/injection, schedule: Q01DX009 (ip), vehicle: water 104 % of control

CCC(=O)C(C)(C)c1ccccc1 (tested in a mixture with another compound)
inactive: [1] 110 % of control | [2] 98 % of control

CC(=O)OCCN1CC1
inactive: [3] 90 % of control

Cc1ccc2c(/C=C/c3ccc(N(C)C)cc3)ccnc2c1
inactive: endpoint: mean survival time, dose: 100.0 mg/kg/injection, schedule: Q04DX003 (ip), vehicle: Klucel (hydroxypropylcellulose) (HPC) 93 % of control | endpoint: mean survival time, dose: 200.0 mg/kg/injection, schedule: Q04DX003 (ip), vehicle: Klucel (hydroxypropylcellulose) (HPC) 104 % of control | endpoint: mean survival time, dose: 400.0 mg/kg/injection, schedule: Q04DX003 (ip), vehicle: Klucel (hydroxypropylcellulose) (HPC) 116 % of control

Clc1ncnc2c1ncn2C1CCCCO1 (centres undefined)
inactive: endpoint: mean survival time, dose: 176.0 mg/kg/injection, schedule: Q01DX009 (ip), vehicle: other 117 % of control

c1ccc2c[n+](CCc3c[nH]c4ccccc34)ccc2c1
inactive: endpoint: mean survival time, dose: 25.0 mg/kg/injection, schedule: Q04DX002 (ip), vehicle: other 100 % of control | endpoint: mean survival time, dose: 50.0 mg/kg/injection, schedule: Q04DX002 (ip), vehicle: other 104 % of control

CCCCN(CCCC)C(=O)Nc1ccccc1
inactive: [4] 100 % of control | [5] 100 % of control | [6] 98 % of control

Cc1c2c(cc3c1CCC1(C)C3CCC1C(C)CCC(C)C(C)C)CC(O)CC2 (centres undefined)
inactive: endpoint: mean survival time, dose: 75.0 mg/kg/injection, schedule: Q01DX001 (ip), vehicle: saline with Tween-80 92 % of control | endpoint: mean survival time, dose: 150.0 mg/kg/injection, schedule: Q01DX001 (ip), vehicle: saline with Tween-80 90 % of control | endpoint: mean survival time, dose: 300.0 mg/kg/injection, schedule: Q01DX001 (ip), vehicle: saline with Tween-80 90 % of control

CN(c1ccccc1Cl)S(C)(=O)=O
inactive: [7] 98 % of control | [8] 97 % of control | [9] 90 % of control

CNc1ccn(C2OC(CO)C(O)C2O)c(=O)n1 (centres undefined)
inactive: endpoint: mean survival time, dose: 100.0 mg/kg/injection, schedule: Q01DX005 (ip), vehicle: distilled water + Tween-80 107 % of control | endpoint: mean survival time, dose: 200.0 mg/kg/injection, schedule: Q01DX005 (ip), vehicle: distilled water + Tween-80 104 % of control | endpoint: mean survival time, dose: 400.0 mg/kg/injection, schedule: Q01DX005 (ip), vehicle: distilled water + Tween-80 107 % of control

[Cl][Pt+2][Cl].[NH-]c1ccc(F)c(Cl)c1.[NH-]c1ccc(F)c(Cl)c1
inactive: endpoint: mean survival time, dose: 3.13 mg/kg/injection, schedule: Q04DX003 (ip), vehicle: distilled water + Tween-80 108 % of control | endpoint: mean survival time, dose: 6.25 mg/kg/injection, schedule: Q04DX003 (ip), vehicle: distilled water + Tween-80 103 % of control | endpoint: mean survival time, dose: 12.5 mg/kg/injection, schedule: Q04DX003 (ip), vehicle: distilled water + Tween-80 110 % of control | endpoint: mean survival time, dose: 25.0 mg/kg/injection, schedule: Q04DX003 (ip), vehicle: distilled water + Tween-80 110 % of control | endpoint: mean survival time, dose: 50.0 mg/kg/injection, schedule: Q04DX003 (ip), vehicle: distilled water + Tween-80 110 % of control

N#CC(/C=C/c1ccccc1)NCC(O)c1ccccc1 (centres undefined)
inactive: [1] 97 % of control | [2] 101 % of control | [10] 93 % of control

Brc1cccc2c1CCCC2
inactive: [7] 97 % of control | [8] 95 % of control | [9] 103 % of control

CC(O)/C=C/c1ccccc1O (centres undefined)
inactive: [7] 90 % of control | [8] 96 % of control | [9] 93 % of control

CCCCCCCCCCCC(O)CCCCC (centres undefined)
inactive: endpoint: mean survival time, dose: 100.0 mg/kg/injection, schedule: Q01DX009 (ip), vehicle: other 95 % of control | endpoint: mean survival time, dose: 100.0 mg/kg/injection, schedule: Q04DX003 (ip), vehicle: other 91 % of control | endpoint: mean survival time, dose: 200.0 mg/kg/injection, schedule: Q01DX009 (ip), vehicle: other 91 % of control | endpoint: mean survival time, dose: 200.0 mg/kg/injection, schedule: Q04DX003 (ip), vehicle: other 103 % of control | endpoint: mean survival time, dose: 400.0 mg/kg/injection, schedule: Q01DX009 (ip), vehicle: other 98 % of control | endpoint: mean survival time, dose: 400.0 mg/kg/injection, schedule: Q04DX003 (ip), vehicle: other 96 % of control

CC1CCC(NC(=O)NCCCl)CC1 (centres undefined)
inactive: [1] 98 % of control | [2] 109 % of control | [10] 101 % of control

CN(C)C(=O)c1cccc(NC(=O)NCc2cccc(N3C(N)=NC(N)=NC3(C)C)c2)c1
inactive: [3] 94 % of control | [11] 95 % of control

OC(CC1(O)C(F)(F)C(F)(F)C1(F)F)c1ccccc1 (centres undefined)
inactive: [7] 96 % of control | [8] 92 % of control | [9] 90 % of control

O=C(O)CN(CCO)CCO
inactive: endpoint: mean survival time, dose: 100.0 mg/kg/injection, schedule: Q04DX003 (ip), vehicle: saline 100 % of control | endpoint: mean survival time, dose: 200.0 mg/kg/injection, schedule: Q04DX003 (ip), vehicle: saline 102 % of control | endpoint: mean survival time, dose: 400.0 mg/kg/injection, schedule: Q04DX003 (ip), vehicle: saline 102 % of control

Nc1nc(N)c2c(n1)NCN(CCc1ccc(Cl)cc1)C2
inactive: endpoint: mean survival time, dose: 0.75 mg/kg/injection, schedule: Q01DX009 (ip), vehicle: distilled water + Tween-80 100 % of control | endpoint: mean survival time, dose: 1.5 mg/kg/injection, schedule: Q01DX009 (ip), vehicle: distilled water + Tween-80 102 % of control | endpoint: mean survival time, dose: 3.0 mg/kg/injection, schedule: Q01DX009 (ip), vehicle: distilled water + Tween-80 102 % of control | endpoint: mean survival time, dose: 6.0 mg/kg/injection, schedule: Q01DX009 (ip), vehicle: distilled water + Tween-80 100 % of control | endpoint: mean survival time, dose: 12.0 mg/kg/injection, schedule: Q01DX009 (ip), vehicle: distilled water + Tween-80 100 % of control | endpoint: mean survival time, dose: 24.0 mg/kg/injection, schedule: Q01DX009 (ip), vehicle: distilled water + Tween-80 98 % of control

CCOC(=O)C1C2OC(=O)C(C(=O)C2CN(CCCl)CCCl)C1C1CC=C(CC2=CCC(C3C4C(=O)OC(C(CN(CCCl)CCCl)C4=O)C3C(=O)OCC)CC2)CC1 (centres undefined)
active: endpoint: mean survival time, dose: 50.0 mg/kg/injection, schedule: Q01DX009 (ip), vehicle: Klucel (hydroxypropylcellulose) (HPC) 154 % of control and 162 % of control | endpoint: mean survival time, dose: 100.0 mg/kg/injection, schedule: Q01DX009 (ip), vehicle: Klucel (hydroxypropylcellulose) (HPC) 154 % of control and 232 % of control
inactive: endpoint: mean survival time, dose: 6.25 mg/kg/injection, schedule: Q01DX009 (ip), vehicle: Klucel (hydroxypropylcellulose) (HPC) 121 % of control | endpoint: mean survival time, dose: 12.5 mg/kg/injection, schedule: Q01DX009 (ip), vehicle: Klucel (hydroxypropylcellulose) (HPC) 121 % of control | endpoint: mean survival time, dose: 200.0 mg/kg/injection, schedule: Q01DX009 (ip), vehicle: Klucel (hydroxypropylcellulose) (HPC) 111 % of control | endpoint: mean survival time, dose: 400.0 mg/kg/injection, schedule: Q01DX009 (ip), vehicle: Klucel (hydroxypropylcellulose) (HPC) 88 % of control

CC(Br)C(=O)c1ccc(OC(=O)c2ccccc2)cc1 (centres undefined)
inactive: [4] 100 % of control | [5] 100 % of control | [6] 100 % of control

O=c1cn[nH]c2c(Cl)cccc12
inactive: endpoint: mean survival time, dose: 100.0 mg/kg/injection, schedule: Q01DX001 (ip), vehicle: carboxymethylcellulose (CMC) 106 % of control | endpoint: mean survival time, dose: 200.0 mg/kg/injection, schedule: Q01DX001 (ip), vehicle: carboxymethylcellulose (CMC) 95 % of control

CCCCS.[Hg]
inactive: endpoint: mean survival time, dose: 6.25 mg/kg/injection, schedule: Q01DX009 (ip), vehicle: saline with Tween-80 95 % of control | endpoint: mean survival time, dose: 12.5 mg/kg/injection, schedule: Q01DX009 (ip), vehicle: saline with Tween-80 96 % of control | endpoint: mean survival time, dose: 25.0 mg/kg/injection, schedule: Q01DX009 (ip), vehicle: saline with Tween-80 95 % of control

Nc1nc(N)c(-c2ccc(Cl)cc2)c(COc2ccc(C3(CCl)OCCO3)cc2)n1
inactive: endpoint: mean survival time, dose: 25.0 mg/kg/injection, schedule: Q01DX001 (ip), vehicle: saline with Tween-80 94 % of control | endpoint: mean survival time, dose: 50.0 mg/kg/injection, schedule: Q01DX001 (ip), vehicle: saline with Tween-80 102 % of control | [1] 100 % of control

O=C(OCC1OC(n2cc(C(F)(F)F)c(=O)[nH]c2=O)CC1OC(=O)c1ccc([N+](=O)[O-])cc1)c1ccc([N+](=O)[O-])cc1 (centres undefined)
inactive: endpoint: median survival time, dose: 25.0 mg/kg/injection, schedule: Q01DX009 (ip), vehicle: Klucel (hydroxypropylcellulose) (HPC) 116 % of control | endpoint: median survival time, dose: 50.0 mg/kg/injection, schedule: Q01DX009 (ip), vehicle: Klucel (hydroxypropylcellulose) (HPC) 113 % of control

CC1=CCS(=O)(=O)C1
inactive: [11] 111 % of control | endpoint: mean survival time, dose: 100.0 mg/kg/injection, schedule: Q01DX009 (ip), vehicle: saline 90 % of control
